# According to US20180037871A1, “CANCER INITIATING CELL AND USE THEREOF” (priority 2016, published 2018):
# Entries after “also recorded” stand apart in the source; their conditions may differ. Like-named read-outs stand apart in the source and are kept apart here.
# Tests used:
# [1] = system: CAR+/mPSCs^Oct-4_hi E9 clone; assay: Cell viability assay (WST-1), E9 clone; format: cell-based, mouse; details: 48 h, mean ± SD
# Experimental: (§1) Cells were seeded at 3×10^3 cells per well in 96-well plates and incubated for 18 h. Cells were treated with cisplatin (Sigma-Aldrich) or paclitaxel (Sigma-Aldrich) at various concentrations. After 48 h, WST-1 assay (Roche) was performed to determine cell viability according to the manufacturer's instructions. Cell viability was expressed as a percentage of the non-treated group, and the IC50 values were determined.
# [2] = system: CAR+/mPSCs^Oct-4_hi C1, E9, and C7 clones; assay: Cell viability assay (WST-1), C1, E9 and C7 clones together; format: cell-based, mouse; details: for IC50: range over C1, E9, and C7 clones, 48 h
# Experimental: as §1
# [3] = system: CAR+/mPSCs^Oct-4_hi C7 clone; assay: Cell viability assay (WST-1), C7 clone; format: cell-based, mouse; details: 48 h, mean ± SD
# Experimental: as §1
# [4] = system: A549 cells; assay: Cell viability assay (WST-1), A549 cells; format: cell-based, human; details: 48 h, mean ± SD
# Experimental: as §1
# [5] = system: CAR+/mPSCs^Oct-4_hi C1 clone; assay: Cell viability assay (WST-1), C1 clone; format: cell-based, mouse; details: 48 h, mean ± SD
# Experimental: as §1
# [6] = system: blood vessel formation induced by C1 clone; assay: Chick chorioallantoic membrane (CAM) assay of C1 clone; format: in vivo, chicken; details: 2 μM Tie2 kinase inhibitor, C1 clone 1×10^6 cells on CAM
# Experimental: Fertilized chicken eggs were incubated at 37° C. in an atmosphere of 80% humidity. At day 8 of the development, 1×10^6 cells were loaded onto a membrane and implanted on the top of the growing CAM. At day 11, CAM was fixed with 4% paraformaldehyde, and photographed using a stereomicroscope and digital camera. Branching points were quantified using NIH Image J software with the angiogenesis plugin.
# At day 11, CAM was fixed with 4% paraformaldehyde, and photographed using a stereomicroscope and a digital camera. Branching points were quantified using NIH Image J software with the angiogenesis plugin.
# [7] = system: C1 clone tumor; assay: Xenograft tumor assay of C1 clone; format: in vivo; details: 50 mg/kg BW ip once every two days, 1×10^5 C1 cells sc, SCID mice, volume recorded day 10 to 25
# Excerpt: All animal experiments were reviewed and approved by the Institutional Animal Care and Use Committee of National Taiwan University College of Medicine. For teratoma formation assay, 1×10^6 cells of CAR^+/mPSCs^Oct-4^_^hi C1, E9, and C7 clones were subcutaneously injected into 8-week-old male severe combined immunodeficiency (SCID) mice. For limiting dilution transplantation experiment, the C1 clone (10^5, 10^4, 10^3 and 10^2 cells) or CAR^+/mPSCs (10^6 cells) were subcutaneously injected into SCID mice. For C1-GFP clone and A549 cells derived tumor experiments. C1-GFP clone (1×10^5 cells) or A549 (1×10^6 cells) were subcutaneously injected into SCID mice. Tumor dimensions were measured using calipers once every 3 d, and volumes (cm^3) were calculated according to the standard formula: length×width^2/2. At the end of the experiment, the tumors were surgically excised and photographed. In metastasis assay, 3×10^5 cells of C1 clone, and CAR^+/mPSCs were injected into the lateral tail vein of SCID mice. Lung metastatic nodules were evaluated at week 5 by necropsy and histological examination. […]
# 1×10^5 cells of CAR^+/mPSCs^Oct-4^_^hi C1 clone were subcutaneously injected into 8-week-old male severe combined immunodeficiency (SCID) mice. […] Tumor dimensions were measured using calipers once every 2 or 3 d, and volumes (cm^3) were calculated according to the standard formula: length×width^2/2. […]
# [8] = IC50 in C1, E9, C7 clones versus A549 cells
# [9] = Mus musculus, read-out: IC50 of paclitaxel
smiles,measurement,setting,value
"N.N.[Cl][Pt][Cl] [Cisplatin, cisplatin]",IC50,[1]; read-out: IC50 of cisplatin,26.4 ± 2.3 µM
same,resistance to cisplatin compared to the A549 cells,[2]; [8],2-3 fold
same,IC50,[2]; read-out: IC50 of cisplatin,26.4 to 34.7 µM
same,IC50,[3]; read-out: IC50 of cisplatin,32.7 ± 1.6 µM
same,IC50,[4]; read-out: IC50 of cisplatin,13.5 ± 2.2 µM
same,IC50,[5]; read-out: IC50 of cisplatin,34.7 ± 1.4 µM
"CC(=O)O[C@H]1C(=O)[C@@]2(C)[C@H]([C@H](OC(=O)c3ccccc3)[C@]3(O)C[C@H](OC(=O)[C@H](O)[C@@H](NC(=O)c4ccccc4)c4ccccc4)C(C)=C1C3(C)C)[C@]1(OC(C)=O)CO[C@@H]1C[C@@H]2O [Paclitaxel, paclitaxel]",IC50,[1]; [9],0.0432 ± 0.0036 µM
same,IC50 of paclitaxel higher than that of the A549 cells,[2]; [8],approximately 6 fold
same,IC50,[2]; [9],0.0432 to 0.0472 µM
same,IC50,[3]; [9],0.045 ± 0.0025 µM
same,IC50,"[4]; Homo sapiens, read-out: IC50 of paclitaxel",0.0082 ± 0.0035 µM
same,IC50,[5]; [9],0.0472 ± 0.002 µM
COc1ccc2cc(-c3nc(-c4ccc([S+](C)[O-])cc4)[nH]c3-c3ccncc3)ccc2c1 (stereo not drawn) [Tie2 kinase inhibitor],blood vessel formation (branch point number),[6],inhibited the blood vessel formation; also recorded: decreases the blood vessel formation induced by C1 clone
same,tumor volume / tumor growth,[7],the tumor growth of C1 clone is inhibited
same,tumor volume / tumor growth,[7]; listed as Tie2 inhibitor,significantly reduced the tumor volume
